Measurements: patent US20100179098A1, “FUROST-5-ENE-3, 22, 26-TRIOL GLYCOSIDE COMPOUND FOR PREVENTING AND TREATMENT CANCER” (priority 2006, published 2010)
Like-named read-outs stand apart in the source and are kept apart here.

Columns and labels:
[1] = system: GP7TB cells; assay: Growth inhibition (cell number), GP7TB; assay type: cell-based, rat; conditions: for Amount of Cells: GP7TB, mean of triplicate; for IC50: Rattus norvegicus, GP7TB cells, read-out: 50% inhibition concentration (IC50)
Method: Rat liver cancer cell line GP7TB and human liver cancer cell line Huh-7 and HepG2 at 10^4 cells each were seeded in individual wells of a 96-well cultural plate. After overnight incubation, different concentrations of the extracts were added therein for 24 hours. Subsequently, the medium was discarded, and the medium with 20 μl/ml of MTS was added for 1 hour. Since MTS reagent contains 3-(4,5-dimethylhiazol-2-yl)-5-(3-carboxymethoxyphenyl)-2-(4-sulfophenyl)-2H-tetrazolium, which could be metabolized by NADH or NADPH dehydrogenase in living cells to a formazan product, cellular survival rates could be estimated from different readings at 490 nm.
The experiments were performed in triplicate and the results were performed by average calculation.

[2] = system: GP7TB cells; assay: In vivo growth inhibition of rat liver tumor by intratumoral injection
Method: The back of each rat was injected subcutaneously with 3×10^6 cells of GP7TB cells. The tumor grows up to 0.3 cm in diameter after about one week. A single dose of dichotomin (PK-22-1, 2.0 mg/kg) or the control buffer (PBS) was directly injected into the tumor once every day for 8 consecutive days. The tumor size was measured, and the cancer cell growth inhibition effects of the control group and dichotomin treated group were compared.

[3] = system: GP7TB cells; assay: Nuclear DNA fragmentation (agarose gel electrophoresis), GP7TB; assay type: cell-based, rat; conditions: 12.5 μg/ml, 48 hours
Method: To understand the GP7TB cell growth inhibition mechanism of the active components and the extracts, GP7TB cells were treated with the extracts and dichotomin at a constant concentration of 12.5 μg/ml for 48 hours. The cellular DNA was extracted and analyzed with agarose gel electrophoresis. […] Therefore, it could be concluded that dichotomin could induce apoptosis of the abovementioned cell lines.

[4] = system: HepG2 cells; assay: Nuclear DNA fragmentation (agarose gel electrophoresis), HepG2; assay type: cell-based, human; conditions: HepG2, 12.5 μg/ml, 48 hours
[5] = system: GP7TB cells; assay: Ex-vivo anti-tumor experiment: pretreated GP7TB cells grafted in F344 rats; set-up: species or system rat; conditions: GP7TB cells pretreated 12.5 μg/ml 24 hours; 5×10^6 cells S.C.; after three weeks
Method: GP7TB cells (3×10^6 cells each) were incubated in several 10-cm cultural dishes and treated with dichotomin (PK-22-1) or the extract without dichotomin (PK-22-3) at a concentration of 12.5 μg/ml for 24 hours. These cells were collected. GP7TB cells, PK-22-1-treated GP7TB cells, and PK-22-3-treated GP7TB cells (5×10^6 cells each) were separately injected subcutaneously at three different locations on the back of each F344 rat. […] The tumor sizes of rats inoculated with GP7TB cells treated with the extract PK-22-3 without dichotomin were the same as those of rats treated with GP7TB cells (control group).

[6] = system: Colon, HT-29; assay: alamarBlue cancer cell inhibition, HT-29; assay type: cell-based; conditions: HT-29, 72 hours
Method: (§1) Each suspension of various cancer cell lines was inoculated in a 96-well cultural plate and incubated at 37° C. under 5% carbon dioxide for 24 hours. Then, 100 μL of medium and 2 μl of different concentrations (100, 10, 1, 0.1 and 0.01 μM) of dichotomin (PK-22-1) were added therein. In addition, the cancer cells treated with a control drug, mitomycin, were incubated and treated in the same manner. After 72 hours of incubation, 20 μl of alamarBlue reagent was added into each well and the cells were incubated for another 6 hours. Cell densities were detected with a fluorescence detector, GENios equipped with a microreader, using an exciting wavelength of 530 nm and an emission wavelength of 590 nm. The IC50 value means the concentration at which the experimental drug reduces the cell numbers by 50% at the end of the experiment. This value represents the inhibition activity of the test drugs.

[7] = system: Liver, Hep 3B; assay: alamarBlue cancer cell inhibition, Hep 3B; assay type: cell-based; conditions: 72 hours
Method: as §1

[8] = system: Lung, A549; assay: alamarBlue cancer cell inhibition, A549; assay type: cell-based; conditions: A549, 72 hours
Method: as §1

## (25R)-26-O-beta-D-glucopyranosyl-22-hydroxy-5-ene-furostan-3beta, 26-diol-3-O-alpha-L-rhamnopyranosyl-(1→4)-alpha-L-rhamnopyranosyl-(1→4)-[alpha-L-rhamnopyranosyl-(1→2)]-beta-D-glucopyranoside [PK-22-1]
[1]; 1 μg/ml
  Amount of Cells: 1.30 × 10^5 cells/ml
[1]; 2 μg/ml
  Amount of Cells: 4.60 × 10^4 cells/ml
[1]; 4 μg/ml
  Amount of Cells: 2.00 × 10^4 cells/ml
[1]; 6 μg/ml
  Amount of Cells: 1.10 × 10^4 cells/ml
[1]; 8 μg/ml
  Amount of Cells: 5.00 × 10^4 cells/ml
[1]; 10 μg/ml
  Amount of Cells: 3.00 × 10^3 cells/ml
[1]; 12 μg/ml
  Amount of Cells: 1.60 × 10^3 cells/ml
[2]; 2.0 mg/kg into the tumor once daily for 8 days, volume = 0.52 × length × width × height
  Tumor volume after injection (Day 8): (0.692 cm^3)
[2]; 2.0 mg/kg intratumoral, 8 days
  Apoptosis of cancer cells in tumor (pathological section): exhibited apoptosis
[2]; 2.0 mg/kg intratumoral, 8 days, vs PBS
  Tumor size relative to the control group: only half the size
[2]; baseline, volume = 0.52 × length × width × height
  Tumor volume before injection (Day 0): (0.142 cm^3)
[2]; tumor volume Day 8 vs Day 0, 2.0 mg/kg intratumoral, PBS control 9.26
  Growth (folds): 4.87 folds
[3]
  Nuclear DNA fragmentation: most notable effects
[4]
  Nuclear DNA fragmentation: most notable effects
[5]
  Rats that did not form any tumor: six rats of the nine
  Tumor size relative to tumors from untreated GP7TB cells (control group): one sixth
[6]
  IC50: 7300 nM
[7]
  IC50: 8500 nM
[8]
  IC50: 840 nM

## COc1cccc2c1C(=O)c1c(O)c3c(c(O)c1C2=O)C[C@@](O)(C(=O)CO)C[C@@H]3O[C@H]1C[C@H](N)[C@H](O)[C@H](C)O1 [Adriamycin]
[1]; 1 μg/ml
  Amount of Cells: 7.80 × 10^4 cells/ml
[1]; 2 μg/ml
  Amount of Cells: 2.30 × 10^4 cells/ml
[1]; 4 μg/ml
  Amount of Cells: 2.00 × 10^4 cells/ml
[1]; 6 μg/ml
  Amount of Cells: 3.00 × 10^4 cells/ml
[1]; 8 μg/ml
  Amount of Cells: 2.50 × 10^4 cells/ml
[1]; 10 μg/ml
  Amount of Cells: 2.30 × 10^4 cells/ml
[1]; 12 μg/ml
  Amount of Cells: 1.60 × 10^4 cells/ml
[1]; by mass
  IC50: 1.54 µg/mL
[1]; molar
  IC50: 2660 nM

## CO[C@@]12[C@H](COC(N)=O)C3=C(C(=O)C(C)=C(N)C3=O)N1C[C@@H]1N[C@@H]12 [Mitomycin, reference compound]
[6]; Homo sapiens
  IC50: 330 nM
[7]; Homo sapiens, Hep3B
  IC50: 40 nM
[8]; Homo sapiens
  IC50: 160 nM
